Measurements taken from patent US20180312493A1, “Antibiotic Compounds, Pharmaceutical Formulations Thereof And Methods And Uses Therefor” (Simon Fraser University, priority 2015, published 2018).
pIC50: −log10 of the molar value. In brackets after ≈: the same amount, converted by molar mass. Where a name gives a salt, the structure may show the parent alone. Read-outs that look alike come from different tables or passages of the source.

Key:
VRE#2 (2010A) = assay: In vitro susceptibility, broth microdilution (MIC); assay type: cell-based, vancomycin resistant Enterococci; settings: read-out: Antimicrobial activity (MIC) VRE#2
Procedure, shortened: (§1)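 MIC determined by CLSI 2-fold broth microdilution in cation-adjusted Mueller–Hinton broth at ~2.5×10^5 CFU/ml, final compound 0.031–64 μg/ml, 18–24 h at 37 °C. MIC is the lowest concentration giving complete growth inhibition by background-corrected OD600 versus compound-free wells; duplicate or triplicate wells, replicated at least twice.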

[1] = test system: A. baumannii (ATCC 19606); assay: In vitro susceptibility, broth microdilution (MIC); assay type: cell-based; settings: Acinetobacter baumannii
Text: (§2) Epidemic methicillin resistant S. aureus (MRSA) strain sequenced at the Sanger Centre (MRSA252, NRS71) was obtained from NARSA (Network on Antimicrobial Resistance in S. aureus). Methicillin sensitive S. aureus (ATCC 29213 and 25923), methicillin resistant S. aureus (ATCC BAA-1762), and Salmonella typhimurium (ATCC BAA-185) were obtained from ATCC, The Global Bioresource Center. Acinetobacter baumannii (ATCC 19606 and ATCC 17978), Klebsiella pneumonia (C238), vancomycin resistant Enterococci #2 (2010A) (VRE#2), MRSA (USA400, MW2) and Pseudomonas aeruginosa (PA0-1) were obtained from the laboratory of Dr B. B. Finlay at the University of British Columbia (Vancouver, Canada).
(§3) The antimicrobial activities of PK inhibitor candidates were determined using the 96-well microtiter standard 2-fold serial broth microdilution method as described by CLSI (formerly NCCLS) with the various gram-positive and gram-negative bacteria species mentioned above. Bacteria from a single colony were grown, overnight in either BHI Broth (VRE), mueller hinton broth (S. aureus 29213; MRSA USA400, A. baumannii 19606, MRSA BAA-1762) or L-broth (P. aeruginosa, S. typhimurium, K. pneumonia and A. baumannii 17978). Each compound was prepared in DMSO with 2-fold serial dilutions to give a final concentration of, 0.031 to 64 μg/ml. 10 μl of the compound solution was then added, in duplicate, to either, 190 μl of cation adjusted mueller hinton broth (CAMHB) or 190 μl CAMHB containing ˜2.5×10^5 CFU/ml of bacteria (final compound concentration 0.031 to 64 μg/ml). Culture plates were incubated for 18-24 h at 37° C., and optical density at 600 nm (OD600) was measured using a Benchmark Plus™ microplate spectrophotometer (Bio-Rad™). The absorbance control values for the series containing CAMHB and inhibitor were subtracted as background from the corresponding infected wells. Minimal inhibitory concentration (MIC) was defined as the lowest concentration of test compound leading to complete inhibition of cell growth in relation to compound-free control wells as determined by optical density. Vancomycin, methicillin and ciprofloxicin were used as reference compounds. All assays were run in triplicate or duplicate. Experiments were replicated at least twice to verify reproducibility using the above conditions.

K. pneumoniae (C238) = assay: In vitro susceptibility, broth microdilution (MIC); assay type: cell-based; settings: Klebsiella pneumoniae; K. pneumoniae (C238); read-out: Antimicrobial activity (MIC) K. pneumoniae
Procedure, shortened: (§4)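 CLSI 2-fold serial broth microdilution; K. pneumoniae C238 grown in L-broth, S. aureus ATCC 29213 in Mueller Hinton broth, plates incubated 18–24 h at 37 °C. MIC taken as lowest concentration giving complete growth inhibition by OD600 versus compound-free wells, background-subtracted.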

S. aureus (ATCC29213) = assay: In vitro susceptibility, broth microdilution (MIC); assay type: cell-based; settings: Staphylococcus aureus
Procedure, shortened: as §4

MRSA Pyk = target: T1, MRSA Pyk (Staphylococcus aureus, UniProt Q6GG09); assay: MRSA pyruvate kinase (PK) activity, continuous LDH-coupled assay; assay type: biochemical, methicillin resistant S. aureus (MRSA252)
T1 construct: made in house; host or cells: E. coli BL-21 (DE3)
Procedure, shortened: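 His-tagged MRSA PK (strain Sanger 252) and human PK isoforms expressed in E. coli BL-21 (DE3) and Ni-NTA purified, used at 15 nM in an LDH-coupled assay following NADH oxidation at 340 nm, 30° C, up to 5 min, ≤1% DMSO. IC50 from four-parameter variable-slope fit; Ki with PEP 2-20 mM, ADP fixed 2 mM, inhibitor 0-400 nM.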

[2] = test system: A. baumannii (ATCC 17978); assay: In vitro susceptibility, broth microdilution (MIC); assay type: cell-based; settings: Acinetobacter baumannii, ATCC17978; A. baumannii ATCC 17978 (values marked *); read-out: Antimicrobial activity (MIC) A. baumannii
Text: as §2, §3

MRSA (ATCC BAA-1762) = assay: In vitro susceptibility, broth microdilution (MIC); assay type: cell-based, methicillin resistant S. aureus; settings: Staphylococcus aureus, read-out: Antimicrobial activity (MIC) MRSA ATCC BAA1762
Procedure, shortened: as §1

[3] = ATCC19606, A. baumannii ATCC 19606 (values without asterisk), read-out: Antimicrobial activity (MIC) A. baumannii
[4] = S. aureus ATCC29213, 18-24 h, 37 C, read-out: Antimicrobial activity (MIC) S. aureus ATCC29213

T1 sequence (Q6GG09 whole entry): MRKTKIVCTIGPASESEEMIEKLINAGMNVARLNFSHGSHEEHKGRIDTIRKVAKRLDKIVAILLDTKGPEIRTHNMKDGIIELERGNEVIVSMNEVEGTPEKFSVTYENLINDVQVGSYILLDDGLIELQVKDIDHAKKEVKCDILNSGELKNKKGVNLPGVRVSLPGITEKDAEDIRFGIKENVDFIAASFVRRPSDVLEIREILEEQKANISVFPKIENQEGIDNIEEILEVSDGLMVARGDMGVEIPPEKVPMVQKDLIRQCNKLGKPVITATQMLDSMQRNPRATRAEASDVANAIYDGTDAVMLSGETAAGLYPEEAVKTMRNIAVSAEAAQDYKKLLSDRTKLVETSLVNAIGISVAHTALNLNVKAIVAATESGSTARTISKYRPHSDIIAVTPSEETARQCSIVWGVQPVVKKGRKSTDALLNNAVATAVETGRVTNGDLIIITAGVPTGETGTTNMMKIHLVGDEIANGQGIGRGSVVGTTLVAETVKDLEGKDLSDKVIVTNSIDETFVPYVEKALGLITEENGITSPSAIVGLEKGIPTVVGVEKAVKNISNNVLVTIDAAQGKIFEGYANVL

SMILES	MIC (VRE#2 (2010A); VRE#2 (2010A)) [µg/mL]	MIC [1, 3] [µg/mL]	MIC (S. aureus (ATCC29213); [4]) [µg/mL]	pIC50 (MRSA Pyk)	MIC [2] [µg/mL]	MIC (MRSA (ATCC BAA-1762); MRSA ATCC BAA-1762) [µg/mL]	other results
CN1CCC(CCNC(=O)c2c(/C=C/c3ccc(Cl)cc3)[nH]c3cc(Br)ccc23)CC1 [Compound 40, (E)-6-Bromo-2-(4-chlorostyryl)-N-(2-(1-methylpiperidin-4-yl)ethyl)-1 H-indole-3-carboxamide]	8 (≈ 16 µM)	> 64	8 (≈ 16 µM)	6.00 to 7.00			MIC (K. pneumoniae (C238)): 16 µg/mL (≈ 31.9 µM)
CN(C)CCNC(=O)c1c(-c2cc3cc(Cl)ccc3[nH]2)[nH]c2cc(Br)ccc12 [Compound 73, 6-Bromo-5′-chloro-N-(2-(dimethylamino)ethyl)-1H,1′H-[2,2′-biindole]-3-carboxamide]	8 (≈ 17.4 µM)	64 (≈ 139 µM)	8 (≈ 17.4 µM)	> 7.00			MIC (K. pneumoniae (C238)): 8 µg/mL (≈ 17.4 µM)
NC(=O)N1CCC(NCCNC(=O)c2c(-c3cc4cc(Cl)ccc4[nH]3)[nH]c3cc(Br)ccc23)CC1 [Compound 131, 6-bromo-N-(2-(1-carbamoylpiperidin-4-ylamino)ethyl)-5′-chloro-1H,1′H-2,2′-biindole-3-carboxamide]			> 64		64 (≈ 115 µM)		
COC(CNC(=O)c1c(-c2cc3cc(Cl)ccc3[nH]2)[nH]c2cc(Br)ccc12)OC [Compound 134, 6-Bromo-5′-chloro-N-(2,2-dimethoxyethyl)-1H,1′H-[2,2′-biindole]-3-carboxamide]			> 64		> 64		
CCOC(CCCNC(=O)c1c(-c2cc3cc(Cl)ccc3[nH]2)[nH]c2cc(Br)ccc12)OCC [Compound 135, 6-Bromo-5′-chloro-N-(4,4-diethoxybutyl)-1H,1′H-[2,2′-biindole]-3-carboxamide]			> 64		> 64		
O=C(NCCN1CCNCC1=O)c1c(-c2cc3cc(Cl)ccc3[nH]2)[nH]c2cc(Br)ccc12 [Compound 143, 6-bromo-5′-chloro-N-(2-(2-oxopiperazin-1-yl)ethyl)-1H,1′H-[2,2′-biindole]-3-carboxamide]			> 64		> 64		
C[n+]1ccc(CCNC(=O)c2c(-c3cc4cc(Cl)ccc4[nH]3)[nH]c3cc(Br)ccc23)cc1 [Compound 149, 4-(2-(6-bromo-5′-chloro-1H,1′H-[2,2′-biindole]-3-carboxamido)ethyl)-1-methylpyridin-1-ium]	16	> 64	16	> 7.00		16	
C[n+]1ccccc1CCNC(=O)c1c(-c2cc3cc(Cl)ccc3[nH]2)[nH]c2cc(Br)ccc12 [Compound 150]	32	> 64	16	> 7.00		16	
COc1cc2sc(NC(=O)Nc3ccccc3)nc2cc1Br [Compound 153, 1-(5-bromo-6-methoxybenzo[d]thiazol-2-yl)-3-phenylurea]			> 64		> 64		
O=C(Nc1ccc([N+](=O)[O-])cc1)Nc1nc2cc(Br)ccc2s1 [Compound 154, 1-(5-bromobenzo[d]thiazol-2-yl)-3-(4-nitrophenyl)urea]			> 64		> 64		
O=C(Nc1nc2cc(Br)ccc2s1)Nc1ccc(Cl)cc1C(F)(F)F [Compound 157, 1-(5-bromobenzo[d]thiazol-2-yl)-3-(4-chloro-2-(trifluoromethyl)phenyl)urea]					> 64		
COC(=O)c1c(NC(=O)Nc2ccc(Cl)cc2)[nH]c2cc(Br)ccc12 [Compound 181, Methyl 6-bromo-2-(3-(4-chlorophenyl)ureido)-1 H-indole-3-carboxylate]			> 64		> 64		
CN(C)CC(=O)OCCCNC(=O)c1c(-c2cc3cc(Cl)ccc3[nH]2)[nH]c2cc(Br)ccc12 [Compound 184, 3-(6-Bromo-5′-chloro-1H, 1′H-[2,2′-biindole]-3-carboxamido)propyl Dimethylglycinate]	> 64	> 64	> 64	> 7.00		16 (≈ 30.1 µM)	
C[N+](C)(C)CCCNC(=O)COc1cc2[nH]c(-c3cc4ccc(Br)cc4[nH]3)cc2cc1Cl [Compound 191, 3-(2-((6′-Bromo-5-chloro-1H,1′H-[2,2′-biindol]-6-yl)oxy)acetamido)-N,N,N-trimethylpropan-1-aminium Formate]				> 7.00			MIC (VRE#2 (2010A)): 16 µg/mL; MIC (MRSA (ATCC BAA-1762)): 16 µg/mL; MIC ([1]; ATCC19606, read-out: Antimicrobial activity (MIC) A. baumannii): > 64 µg/mL; MIC (S. aureus (ATCC29213); ATCC29213, read-out: Antimicrobial activity (MIC) S. aureus ATCC29213): 16 µg/mL
OCCOc1cc2[nH]c(-c3cc4ccc(Br)cc4[nH]3)cc2cc1Cl [Compound 196, 2-((6′-Bromo-5-chloro-1H,1′H-[2,2′-biindol]-6-yl)oxy)ethan-1-ol]	> 64	> 64	16 (≈ 39.4 µM)	> 7.00		8 (≈ 19.7 µM)	
CN(C)CC(=O)OCCOc1cc2[nH]c(-c3cc4ccc(Br)cc4[nH]3)cc2cc1Cl [Compound 197, 2-((6′-Bromo-5-chloro-1H,1′H-[2,2′-biindol]-6-yl)oxy)ethyl Dimethylglycinate]	8 (≈ 16.3 µM)	> 64	8 (≈ 16.3 µM)	> 7.00		8 (≈ 16.3 µM)	
COc1cc2[nH]c(-c3[nH]c4cc(Br)ccc4c3C(=O)C(F)(F)F)cc2cc1Cl [Compound 200, 1-(6-Bromo-5′-chloro-6′-methoxy-1H, 1′H-[2,2′-biindol]-3-yl)-2,2,2-trifluoroethan-1-one]	1 (≈ 2.12 µM)	> 64	4 (≈ 8.48 µM)	> 7.00		1 (≈ 2.12 µM)	
C[N+](C)(CCO/N=C(/c1c(-c2cc3cc(Cl)ccc3[nH]2)[nH]c2cc(Br)ccc12)C(F)(F)F)CC(=O)[O-] [Compound 223, 2-((2-(((1-(6-Bromo-5′-chloro-1H,1′H-[2,2′-biindol]-3-yl)-2,2,2-trifluoroethylidene)amino)oxy)ethyl)dimethylammonio)acetate]	8 (≈ 13.7 µM)	> 64	16 (≈ 27.3 µM)	6.00 to 7.00		8 (≈ 13.7 µM)	
